ChEMBL document CHEMBL4765492, “Discovery of GLPG2451, a Novel Once Daily Potentiator for the Treatment of Cystic Fibrosis” (J Med Chem, 2021)
Values after ≈ are worked out from the molar mass of the structure shown. Values belong to the compound of their own block, whether it stands above or below them.

Key:
[1] = Unbound intrinsic clearance in rat liver microsomes; assay type: ADME, Microsome
[2] = molecular target: T1, Cystic fibrosis transmembrane conductance regulator (Homo sapiens, UniProt P13569, F508DEL); assay: Potentiation of CFTR F508del mutant (unknown origin) expressed in human CFBE41o- cells co-expressing YFP incubated for 10 mins by halide potentiator assay; assay type: cell-based
T1 sequence (P13569 as listed by the source): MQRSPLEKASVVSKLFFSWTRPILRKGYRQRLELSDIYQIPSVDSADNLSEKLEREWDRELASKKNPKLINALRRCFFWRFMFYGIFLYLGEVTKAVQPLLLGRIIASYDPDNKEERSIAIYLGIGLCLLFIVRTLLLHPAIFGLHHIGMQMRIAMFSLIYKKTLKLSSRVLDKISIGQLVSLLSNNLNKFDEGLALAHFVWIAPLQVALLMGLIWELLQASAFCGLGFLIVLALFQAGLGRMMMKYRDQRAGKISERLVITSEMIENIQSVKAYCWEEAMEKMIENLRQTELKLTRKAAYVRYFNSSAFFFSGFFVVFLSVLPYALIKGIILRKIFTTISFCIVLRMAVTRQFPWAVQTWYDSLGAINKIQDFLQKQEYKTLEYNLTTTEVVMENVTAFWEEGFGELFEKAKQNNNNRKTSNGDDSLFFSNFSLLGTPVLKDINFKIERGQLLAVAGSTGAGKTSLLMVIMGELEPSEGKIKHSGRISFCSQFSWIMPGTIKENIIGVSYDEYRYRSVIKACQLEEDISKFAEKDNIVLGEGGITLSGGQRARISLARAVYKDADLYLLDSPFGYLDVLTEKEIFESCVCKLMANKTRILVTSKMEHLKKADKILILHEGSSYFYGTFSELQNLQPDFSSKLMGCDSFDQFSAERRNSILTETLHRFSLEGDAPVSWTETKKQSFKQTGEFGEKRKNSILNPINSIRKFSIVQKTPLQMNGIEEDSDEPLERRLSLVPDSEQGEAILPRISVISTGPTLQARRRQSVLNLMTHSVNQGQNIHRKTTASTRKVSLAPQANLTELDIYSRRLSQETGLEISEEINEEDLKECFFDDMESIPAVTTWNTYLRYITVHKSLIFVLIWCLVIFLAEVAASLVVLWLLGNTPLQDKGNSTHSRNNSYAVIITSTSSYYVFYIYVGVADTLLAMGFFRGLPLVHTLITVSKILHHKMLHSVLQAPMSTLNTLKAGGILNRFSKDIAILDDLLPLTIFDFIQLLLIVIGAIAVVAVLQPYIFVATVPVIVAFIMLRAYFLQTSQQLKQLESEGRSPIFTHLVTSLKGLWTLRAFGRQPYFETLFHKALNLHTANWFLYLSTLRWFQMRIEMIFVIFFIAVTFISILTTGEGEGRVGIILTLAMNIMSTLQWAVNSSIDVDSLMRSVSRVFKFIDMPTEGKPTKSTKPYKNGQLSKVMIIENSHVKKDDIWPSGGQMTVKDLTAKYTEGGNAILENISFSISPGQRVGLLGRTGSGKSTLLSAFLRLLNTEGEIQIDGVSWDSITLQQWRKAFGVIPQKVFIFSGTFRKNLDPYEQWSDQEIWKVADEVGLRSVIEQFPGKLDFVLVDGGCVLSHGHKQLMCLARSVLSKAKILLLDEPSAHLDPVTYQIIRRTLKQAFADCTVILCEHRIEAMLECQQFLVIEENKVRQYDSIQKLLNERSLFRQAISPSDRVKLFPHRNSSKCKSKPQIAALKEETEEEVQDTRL

[3] = Clearance in Sprague-Dawley rat at 1 mg/kg, iv; assay type: ADME, organism-based; conditions: in vivo
[4] = Unbound clearance in Sprague-Dawley rat at 1 mg/kg, iv; assay type: ADME, organism-based; conditions: in vivo
[5] = Volume of distribution at steady state in Sprague-Dawley rat at 1 mg/kg, iv; assay type: ADME, organism-based; conditions: in vivo, read-out: Vdss
[6] = Half life in Sprague-Dawley rat at 1 mg/kg, iv; assay type: ADME, organism-based; conditions: in vivo
[7] = Unbound intrinsic clearance in human liver microsomes; assay type: ADME, Microsome
[8] = Inhibition of CYP450 (unknown origin); assay type: ADME; conditions: human
[9] = Kinetic aqueous solubility of the compound at pH 7.4; assay type: physicochemical; conditions: buffer, read-out: Kinetic_solubility
[10] = molecular target: T2, Nuclear receptor subfamily 1 group I member 2 (Homo sapiens, UniProt O75469); assay: Activation of PXR (unknown origin) at 10 uM by CYP450 induction assay relative to rifampicin; assay type: ADME
T2 sequence (O75469 whole entry): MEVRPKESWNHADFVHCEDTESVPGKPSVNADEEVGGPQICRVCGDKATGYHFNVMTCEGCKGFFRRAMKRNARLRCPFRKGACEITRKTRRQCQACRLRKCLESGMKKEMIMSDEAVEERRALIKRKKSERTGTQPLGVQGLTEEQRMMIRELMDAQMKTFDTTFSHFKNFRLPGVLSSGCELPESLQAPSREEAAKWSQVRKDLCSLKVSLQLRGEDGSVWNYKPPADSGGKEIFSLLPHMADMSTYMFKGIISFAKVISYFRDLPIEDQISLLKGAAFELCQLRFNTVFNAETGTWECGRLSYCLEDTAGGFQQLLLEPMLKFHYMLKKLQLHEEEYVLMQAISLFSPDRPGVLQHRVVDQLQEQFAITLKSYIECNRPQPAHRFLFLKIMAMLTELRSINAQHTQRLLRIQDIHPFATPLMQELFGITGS

[11] = molecular target: T1, Cystic fibrosis transmembrane conductance regulator; assay: Potentiation of CFTR F508del mutant in human HBE cells by trans-epithelial clamp circuit assay; assay type: cell-based, Primary bronchial epithelial cell
[12] = Thermodynamic solubility of the compound in the FASSIF medium; assay type: physicochemical; conditions: read-out: Therm_solubility
[13] = Unbound intrinsic clearance in dog liver microsomes; assay type: ADME, Canis lupus familiaris, Microsome
[14] = Unbound intrinsic clearance in monkey liver microsomes; assay type: ADME, Macaca mulatta, Microsome; conditions: rhesus monkey
Cytochrome P450 1A2 = molecular target: T3, Cytochrome P450 1A2 (Homo sapiens, UniProt P05177); assay: Inhibition of CYP1A2 (unknown origin); assay type: ADME
T3 sequence (P05177 whole entry): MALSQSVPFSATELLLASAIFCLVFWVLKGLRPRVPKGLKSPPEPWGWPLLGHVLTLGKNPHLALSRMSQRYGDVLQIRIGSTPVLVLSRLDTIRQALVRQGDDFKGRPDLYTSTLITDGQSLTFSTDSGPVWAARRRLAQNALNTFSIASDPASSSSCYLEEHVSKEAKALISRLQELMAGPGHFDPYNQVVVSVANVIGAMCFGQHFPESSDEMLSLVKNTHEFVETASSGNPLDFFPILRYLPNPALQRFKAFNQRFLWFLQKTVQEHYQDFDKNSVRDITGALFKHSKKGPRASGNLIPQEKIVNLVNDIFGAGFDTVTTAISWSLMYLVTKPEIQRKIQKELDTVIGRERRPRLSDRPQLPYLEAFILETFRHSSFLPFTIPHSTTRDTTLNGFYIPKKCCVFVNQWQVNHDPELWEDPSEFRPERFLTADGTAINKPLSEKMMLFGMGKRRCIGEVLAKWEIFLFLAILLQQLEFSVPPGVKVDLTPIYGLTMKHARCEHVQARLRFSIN

Cytochrome P450 2C19 = Cytochrome P450 2C19 (Homo sapiens, UniProt P33261); assay: Inhibition of CYP2C19 (unknown origin); assay type: ADME
Sequence of Cytochrome P450 2C19 (P33261 whole entry): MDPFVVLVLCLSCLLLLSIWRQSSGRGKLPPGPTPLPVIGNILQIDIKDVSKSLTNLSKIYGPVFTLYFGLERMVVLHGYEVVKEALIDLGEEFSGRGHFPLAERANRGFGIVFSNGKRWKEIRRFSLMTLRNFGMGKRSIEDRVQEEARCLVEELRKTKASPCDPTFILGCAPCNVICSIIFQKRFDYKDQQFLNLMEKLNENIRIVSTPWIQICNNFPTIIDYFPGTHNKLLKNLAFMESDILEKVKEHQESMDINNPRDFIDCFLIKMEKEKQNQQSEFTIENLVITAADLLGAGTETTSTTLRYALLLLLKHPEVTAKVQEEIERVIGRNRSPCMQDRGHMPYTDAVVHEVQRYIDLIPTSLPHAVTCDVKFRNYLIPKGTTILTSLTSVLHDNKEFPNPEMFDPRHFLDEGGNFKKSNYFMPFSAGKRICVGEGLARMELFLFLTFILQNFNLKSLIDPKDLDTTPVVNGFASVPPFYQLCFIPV

Cytochrome P450 2C9 = Cytochrome P450 2C9 (Homo sapiens, UniProt P11712); assay: Inhibition of CYP2C9 (unknown origin); assay type: ADME
Sequence of Cytochrome P450 2C9 (P11712 whole entry): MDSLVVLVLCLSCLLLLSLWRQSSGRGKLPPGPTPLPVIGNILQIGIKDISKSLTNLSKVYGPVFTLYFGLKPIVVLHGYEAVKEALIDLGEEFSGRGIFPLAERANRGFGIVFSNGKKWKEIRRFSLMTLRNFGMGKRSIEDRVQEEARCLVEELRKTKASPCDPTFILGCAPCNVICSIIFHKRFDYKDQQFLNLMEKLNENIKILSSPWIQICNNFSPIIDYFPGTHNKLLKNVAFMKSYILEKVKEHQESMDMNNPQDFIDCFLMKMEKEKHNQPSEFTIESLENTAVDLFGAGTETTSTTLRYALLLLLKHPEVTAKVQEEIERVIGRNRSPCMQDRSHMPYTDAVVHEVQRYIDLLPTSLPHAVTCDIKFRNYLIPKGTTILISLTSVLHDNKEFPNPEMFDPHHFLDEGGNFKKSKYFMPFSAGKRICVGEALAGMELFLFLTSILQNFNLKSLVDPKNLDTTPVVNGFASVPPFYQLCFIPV

Cytochrome P450 2D6 = Cytochrome P450 2D6 (Homo sapiens, UniProt P10635); assay: Inhibition of CYP2D6 (unknown origin); assay type: ADME
Sequence of Cytochrome P450 2D6 (P10635 whole entry): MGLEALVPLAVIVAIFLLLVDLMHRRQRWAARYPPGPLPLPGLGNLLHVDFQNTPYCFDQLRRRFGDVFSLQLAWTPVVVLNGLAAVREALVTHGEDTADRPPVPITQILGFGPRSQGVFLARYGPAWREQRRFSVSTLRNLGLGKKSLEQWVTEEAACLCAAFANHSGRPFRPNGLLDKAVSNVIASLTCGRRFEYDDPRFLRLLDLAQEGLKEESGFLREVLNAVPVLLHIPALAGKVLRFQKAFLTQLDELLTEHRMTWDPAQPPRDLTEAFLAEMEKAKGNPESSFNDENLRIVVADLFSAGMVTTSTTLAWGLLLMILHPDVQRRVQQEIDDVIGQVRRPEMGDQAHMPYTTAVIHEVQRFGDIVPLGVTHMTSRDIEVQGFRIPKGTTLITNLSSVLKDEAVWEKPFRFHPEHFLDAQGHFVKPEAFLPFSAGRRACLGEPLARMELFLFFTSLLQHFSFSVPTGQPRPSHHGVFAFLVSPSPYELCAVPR

Cytochrome P450 3A4 = Cytochrome P450 3A4 (Homo sapiens, UniProt P08684); assay: Inhibition of CYP3A4 (unknown origin); assay type: ADME
Sequence of Cytochrome P450 3A4 (P08684 whole entry): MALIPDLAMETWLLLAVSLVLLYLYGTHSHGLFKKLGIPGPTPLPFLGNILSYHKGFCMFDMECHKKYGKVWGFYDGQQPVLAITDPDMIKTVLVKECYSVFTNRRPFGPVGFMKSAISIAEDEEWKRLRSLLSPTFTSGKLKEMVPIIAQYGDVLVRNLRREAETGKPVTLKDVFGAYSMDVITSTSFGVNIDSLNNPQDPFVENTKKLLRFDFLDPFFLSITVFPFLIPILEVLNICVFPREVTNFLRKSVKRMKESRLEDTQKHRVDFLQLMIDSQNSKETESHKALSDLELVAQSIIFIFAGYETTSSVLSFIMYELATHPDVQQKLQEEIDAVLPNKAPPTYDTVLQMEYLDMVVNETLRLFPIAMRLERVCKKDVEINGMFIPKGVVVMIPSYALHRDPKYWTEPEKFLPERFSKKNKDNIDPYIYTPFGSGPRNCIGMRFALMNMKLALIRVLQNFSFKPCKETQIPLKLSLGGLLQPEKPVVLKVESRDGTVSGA

[15] = molecular target: Voltage-gated inwardly rectifying potassium channel KCNH2 (Homo sapiens, UniProt Q12809); assay: Inhibition of human ERG by manual patch clamp assay
Sequence of Voltage-gated inwardly rectifying potassium channel KCNH2 (Q12809 whole entry): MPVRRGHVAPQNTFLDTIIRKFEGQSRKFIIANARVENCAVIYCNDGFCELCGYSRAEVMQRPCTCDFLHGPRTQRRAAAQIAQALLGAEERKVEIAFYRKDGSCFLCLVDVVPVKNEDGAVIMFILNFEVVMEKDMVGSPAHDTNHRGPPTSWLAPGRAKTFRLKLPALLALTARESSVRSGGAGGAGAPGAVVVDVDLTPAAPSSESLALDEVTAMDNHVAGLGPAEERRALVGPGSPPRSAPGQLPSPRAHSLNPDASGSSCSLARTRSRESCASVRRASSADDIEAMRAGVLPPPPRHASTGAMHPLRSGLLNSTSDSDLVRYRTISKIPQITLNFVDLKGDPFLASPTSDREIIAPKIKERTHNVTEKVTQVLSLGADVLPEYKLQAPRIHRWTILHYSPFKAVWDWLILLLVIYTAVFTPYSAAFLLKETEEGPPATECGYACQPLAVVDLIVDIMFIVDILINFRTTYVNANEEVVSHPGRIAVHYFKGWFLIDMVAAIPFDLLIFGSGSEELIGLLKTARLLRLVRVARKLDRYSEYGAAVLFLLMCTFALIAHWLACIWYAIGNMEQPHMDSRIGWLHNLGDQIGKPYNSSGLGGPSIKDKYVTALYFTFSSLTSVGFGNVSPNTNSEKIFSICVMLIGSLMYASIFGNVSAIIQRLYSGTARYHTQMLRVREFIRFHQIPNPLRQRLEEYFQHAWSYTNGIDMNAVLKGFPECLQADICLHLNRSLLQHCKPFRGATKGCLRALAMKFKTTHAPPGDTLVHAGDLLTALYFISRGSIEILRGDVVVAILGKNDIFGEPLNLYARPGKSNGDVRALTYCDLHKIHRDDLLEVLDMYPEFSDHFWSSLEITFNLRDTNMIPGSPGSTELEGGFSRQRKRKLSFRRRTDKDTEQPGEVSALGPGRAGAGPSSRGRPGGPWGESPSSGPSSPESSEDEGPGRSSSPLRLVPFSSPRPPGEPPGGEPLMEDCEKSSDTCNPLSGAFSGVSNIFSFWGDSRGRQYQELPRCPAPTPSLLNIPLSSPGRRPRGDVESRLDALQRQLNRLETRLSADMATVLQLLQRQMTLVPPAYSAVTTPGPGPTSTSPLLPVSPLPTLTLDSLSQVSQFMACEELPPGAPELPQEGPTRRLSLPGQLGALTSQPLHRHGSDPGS

[16] = Clearance in Beagle dog at 1 mg/kg, iv; assay type: ADME, organism-based, Canis lupus familiaris; conditions: in vivo
[17] = Clearance in Cynomolgus monkey at 1 mg/kg, iv; assay type: ADME, organism-based, Macaca fascicularis; conditions: in vivo
[18] = Unbound clearance in Beagle dog at 1 mg/kg, iv; assay type: ADME, organism-based, Canis lupus familiaris; conditions: in vivo
[19] = Unbound clearance in Cynomolgus monkey at 1 mg/kg, iv; assay type: ADME, organism-based, Macaca fascicularis; conditions: in vivo
[20] = Volume of distribution at steady state in Beagle dog at 1 mg/kg, iv; assay type: ADME, organism-based, Canis lupus familiaris; conditions: in vivo, read-out: Vdss
[21] = Volume of distribution at steady state in Cynomolgus monkey at 1 mg/kg, iv; assay type: ADME, organism-based, Macaca fascicularis; conditions: in vivo, read-out: Vdss
[22] = Half life in Beagle dog at 1 mg/kg, iv; assay type: ADME, organism-based, Canis lupus familiaris; conditions: in vivo
[23] = Half life in Cynomolgus monkey at 1 mg/kg, iv; assay type: ADME, organism-based, Macaca fascicularis; conditions: in vivo
[24] = Oral bioavailability in Beagle dog at 1 mg/kg; assay type: ADME, organism-based, Canis lupus familiaris; conditions: in vivo
[25] = Oral bioavailability Cynomolgus monkey at 1 mg/kg, […]; assay type: ADME, organism-based, Macaca fascicularis; conditions: in vivo
[26] = Toxicity in human assessed as drug tolerability during phase I study
[27] = Permeability of compound across apical to basolateral membrane in MDCK cells; assay type: ADME, cell-based, Canis lupus familiaris; conditions: dog, read-out: permeability
[28] = Permeability efflux ratio in MDCK cells; assay type: ADME, cell-based, Canis lupus familiaris; conditions: dog
[29] = test system: Cystic fibrosis transmembrane conductance regulator (Homo sapiens), P13569 [G551D]; assay: Potentiation of CFTR G551D mutant (unknown origin) expressed in human HEK293 cells co-expressing YFP incubated for 10 mins by halide potentiator assay relative to control; assay type: cell-based; conditions: filed as activator
[30] = AUC in rat at 5 mg/kg, po; assay type: ADME, organism-based; set-up: dose 5 mg/kg; conditions: in vivo
[31] = molecular target: Cystic fibrosis transmembrane conductance regulator (Homo sapiens, UniProt P13569, G551D); assay: Potentiation of CFTR G551D mutant (unknown origin) expressed in human HEK293 cells co-expressing YFP incubated for 10 mins by halide potentiator assay; assay type: cell-based
[32] = Oral bioavailability in rat at 5 mg/kg; assay type: ADME, organism-based; conditions: in vivo
[33] = Clearance in rat at 1 mg/kg, iv relative to hepatic blood flow; assay type: ADME, organism-based; conditions: in vivo

- CL free [1]: 120 mL/min/kg
- EC50 [2]: < 0.31 nM
- clearance [3]: 9.83 mL/min/kg
- CL free [4]: 258 mL/min/kg
- Vd [5]: 5.1 L/kg
- half-life [6]: 6.7 h
- CL free [7]: 45 mL/min/kg
- inhibition (INH) [8]: Not Active
- solubility kinetic [9]: 75 µM (≈ 35.5 µg/mL)
- Activity [10]: 80%
Compound: Nc1cc(S(=O)(=O)c2ccccc2OC(F)(F)F)cnc1C(=O)NC[C@@H](O)C(F)(F)F

- CL free [1]: 41.7 mL/min/kg
- EC50 [2]: 11 nM
- clearance [3]: 1.33 mL/min/kg
- CL free [4]: 45 mL/min/kg
- Vd [5]: 1.1 L/kg
- half-life [6]: 8.9 h
- CL free [7]: 20 mL/min/kg
- solubility kinetic [9]: 37 µM (≈ 15.5 µg/mL)
- Activity [10]: 12%
- EC50 [11]: 18 nM
- solubility thermodynamic [12]: 83 µM (≈ 34.8 µg/mL)
- CL free [13]: 28.3 mL/min/kg
- CL free [14]: 18.3 mL/min/kg
- EC50 (Cytochrome P450 1A2): > 100000 nM
- EC50 (Cytochrome P450 2C19): > 33000 nM
- EC50 (Cytochrome P450 2C9): 26000 nM
- EC50 (Cytochrome P450 2D6): > 100000 nM
- EC50 (Cytochrome P450 3A4): > 100000 nM
- clearance [16]: 2.33 mL/min/kg
- clearance [17]: 0.667 mL/min/kg
- CL free [18]: 33 mL/min/kg
- CL free [19]: 21.7 mL/min/kg
- Vd [20]: 2.7 L/kg
- Vd [21]: 0.8 L/kg
- half-life [22]: 15 h
- half-life [23]: 16 h
- bioavailability [24]: 93%
- F [25]: 100%
Compound: C[C@H](O)CNC(=O)c1ncc(S(=O)(=O)c2ccc(OC(F)(F)F)cc2)cc1N
- EC50 [15]: > 30000 nM
- Activity [26]: Non-Toxic

- CL free [1]: 300 mL/min/kg
- EC50 [2]: 5 nM
- clearance [3]: 31.7 mL/min/kg
- CL free [4]: 317 mL/min/kg
- Vd [5]: 3.2 L/kg
- half-life [6]: 1.3 h
- CL free [7]: 130 mL/min/kg
Compound: Nc1cc(S(=O)(=O)N2CCC(OC(F)(F)F)CC2)cnc1C(=O)NCC(O)C(F)(F)F (centres undefined)

- CL free [1]: 71.7 mL/min/kg
- EC50 [2]: 29 nM
- Papp A→B [27]: 0.9 ×10⁻⁶ cm/s
- efflux ratio [28]: 37
Compound: NC(=O)c1cc(S(=O)(=O)c2ccc(F)cc2)sc1NC(=O)c1ccn[nH]1

- CL free [1]: 93.3 mL/min/kg
- EC50 [2]: 2.8 nM
Compound: Nc1cc(S(=O)(=O)c2ccc(OC(F)(F)F)cc2)cnc1C(=O)NCC1(O)CC1

- CL free [1]: 33 mL/min/kg
- EC50 [2]: 20 nM
- Activity [29]: 85%
- AUC [30]: 12400 ng·h/mL
- EC50 [31]: 478 nM
- bioavailability [32]: 46%
- clearance [3]: 2.05 mL/min/kg
- CL free [4]: 167 mL/min/kg
- Vd [5]: 2.7 L/kg
- half-life [6]: 15.5 h
- CLH [33]: < 3%
- CL free [7]: 10 mL/min/kg
Compound: COc1ccc(S(=O)(=O)c2cc(C(N)=O)c(NC(=O)C(C)(C)O)s2)cc1

- CL free [1]: 26.7 mL/min/kg
- EC50 [2]: 7.8 nM
- clearance [3]: 2.17 mL/min/kg
- CL free [4]: 26.8 mL/min/kg
- Vd [5]: 2.9 L/kg
- half-life [6]: > 15 h
- CL free [7]: 17 mL/min/kg
Compound: Nc1cc(S(=O)(=O)c2ccc(F)cc2)cnc1C(=O)NC[C@@H](O)C(F)(F)F

- EC50 [2]: > 2000 nM
Compound: CN(C[C@@H](O)C(F)(F)F)C(=O)c1ncc(S(=O)(=O)c2ccc(F)cc2)cc1N

- EC50 [2]: > 2000 nM
Compound: Nc1cc(S(=O)(=O)c2ccc(C(F)(F)F)cc2)cnc1C(=O)N1CCC[C@H]1CO
